Literature values, collected in US20210329918A1, “AQUEOUS COMPOSITIONS OF TOPRAMEZONE” (BASF SE, priority 2018, published 2021).

Settings: 25° C.

Cc1c(C(=O)c2cnn(C)c2O)ccc(S(C)(=O)=O)c1C1=NOCC1 [topramezone, 4-[3-(4,5-dihydro-1,2-oxazol-3-yl)-2-methyl-4-methylsulfonylbenzoyl]-2-methyl-1H-pyrazol-3-one]
solubility of topramezone in water: about 0.305 g/L
